Experimental data reported in BindingDB's records for doi:10.1021/jm001134q (Linkoping University, 2001).

Molecular target: T1, Dimer of Gag-Pol polyprotein [489-587] (Human immunodeficiency virus 1, UniProt P12497)
T1 construct: 489-587
Assay: Protease Inhibition Assay
Settings: pH 5; 30 °C
Protocol: A fluorimetric assay was used to determine the effects of the inhibitors on HIV-1 protease. This assay used an internally quenched fluorescent peptide substrate. The measurements were performed in 96-well plates with a Fluoroscan plate reader. Excitation and emission wavelengths were 355 nm and 500 nm, respectively.

For O=C(N[C@H]1c2ccccc2C[C@H]1O)[C@H](OCc1ccccc1)[C@H](O)[C@@H](O)[C@@H](OCc1ccccc1)C(=O)N[C@H]1c2ccccc2C[C@H]1O [symmetric/asymmetric inhibitor 2], which Ki is on record?
The Ki was 1.22 nM.

For O=C(N[C@H]1c2ccccc2C[C@H]1O)[C@H](OCc1ccc(F)cc1F)[C@H](O)[C@@H](O)[C@@H](OCc1ccc(F)cc1F)C(=O)N[C@H]1c2ccccc2C[C@H]1O [N1,N6-Bis-[(2R)-hydroxy-1(S)-indanyl]-(2R,3R,4R,5R)-2.5-bis-(2,4-difluorobenzyloxy)-3,4-dihydroxyhexanediamide], which Ki is on record?
Its Ki is 1.65 nM.

With O=C(N[C@H]1c2ccccc2C[C@H]1O)[C@H](OCc1ccccc1F)[C@H](O)[C@@H](O)[C@@H](OCc1ccccc1F)C(=O)N[C@H]1c2ccccc2C[C@H]1O [(2R,3R,4R,5R)-2,5-bis[(2-fluorophenyl)methoxy]-3,4-dihydroxy-N,N'-bis[(1S,2R)-2-hydroxy-2,3-dihydro-1H-inden-1-yl]hexanediamide] as the compound, how does the Ki read?
The Ki was 3.26 nM.

With O=C(N[C@H]1c2ccccc2C[C@H]1O)[C@H](OCc1ccc(F)cc1)[C@H](O)[C@@H](O)[C@@H](OCc1ccc(F)cc1)C(=O)N[C@H]1c2ccccc2C[C@H]1O [(2R,3R,4R,5R)-2,5-bis[(4-fluorophenyl)methoxy]-3,4-dihydroxy-N,N'-bis[(1S,2R)-2-hydroxy-2,3-dihydro-1H-inden-1-yl]hexanediamide] as the compound, how does the Ki read?
Its Ki is 5.39 nM.

O=C(N[C@H]1c2ccccc2C[C@H]1O)[C@H](OCc1cccc(F)c1)[C@H](O)[C@@H](O)[C@@H](OCc1cccc(F)c1)C(=O)N[C@H]1c2ccccc2C[C@H]1O [(2R,3R,4R,5R)-2,5-bis[(3-fluorophenyl)methoxy]-3,4-dihydroxy-N,N'-bis[(1S,2R)-2-hydroxy-2,3-dihydro-1H-inden-1-yl]hexanediamide] was tested. Which Ki did it give?
Its Ki is 7.13 nM.

How did the Ki turn out when O=C(N[C@H]1c2ccccc2C[C@H]1O)[C@H](OCc1cccc(F)c1F)[C@H](O)[C@@H](O)[C@@H](OCc1cccc(F)c1F)C(=O)N[C@H]1c2ccccc2C[C@H]1O [N1,N6-Bis-[(2R)-hydroxy-1(S)-indanyl]-(2R,3R,4R,5R)-2.5-bis-(2,3-difluorobenzyloxy)-3,4-dihydroxyhexanediamide] was run?
Its Ki is 4 nM.

For O=C(N[C@H]1c2ccccc2C[C@H]1O)[C@H](OCc1cc(F)ccc1F)[C@H](O)[C@@H](O)[C@@H](OCc1cc(F)ccc1F)C(=O)N[C@H]1c2ccccc2C[C@H]1O [(2R,3R,4R,5R)-2,5-bis[(2,5-difluorophenyl)methoxy]-3,4-dihydroxy-N,N'-bis[(1S,2R)-2-hydroxy-2,3-dihydro-1H-inden-1-yl]hexanediamide], which Ki is on record?
The Ki was 3.29 nM.

With O=C(N[C@H]1c2ccccc2C[C@H]1O)[C@H](OCc1cc(F)cc(F)c1)[C@H](O)[C@@H](O)[C@@H](OCc1cc(F)cc(F)c1)C(=O)N[C@H]1c2ccccc2C[C@H]1O [(2R,3R,4R,5R)-2,5-bis[(3,5-difluorophenyl)methoxy]-3,4-dihydroxy-N,N'-bis[(1S,2R)-2-hydroxy-2,3-dihydro-1H-inden-1-yl]hexanediamide] as the compound, how does the Ki read?
The Ki was 5 nM.

How did the Ki turn out when O=C(N[C@H]1c2ccccc2C[C@H]1O)[C@H](OCc1ccc(F)c(F)c1)[C@H](O)[C@@H](O)[C@@H](OCc1ccc(F)c(F)c1)C(=O)N[C@H]1c2ccccc2C[C@H]1O [N1,N6-Bis-[(2R)-hydroxy-1(S)-indanyl]-(2R,3R,4R,5R)-2.5-bis-(3,4-difluorobenzyloxy)-3,4-dihydroxyhexanediamide] was run?
Its Ki is 3.9 nM.

With O=C(N[C@H]1c2ccccc2C[C@H]1O)[C@H](OCc1c(F)cccc1F)[C@H](O)[C@@H](O)[C@@H](OCc1c(F)cccc1F)C(=O)N[C@H]1c2ccccc2C[C@H]1O [N1,N6-Bis-[(2R)-hydroxy-1(S)-indanyl]-(2R,3R,4R,5R)-2.5-bis-(2,6-difluorobenzyloxy)-3,4-dihydroxyhexanediamide] as the compound, how does the Ki read?
Its Ki is 1.64 nM.
